From patent US11865128B2, “Aminoglycosides and uses thereof in treating genetic disorders” (Technion Research & Development Foundation Limited, priority 2010, dated 2024)
Converted amounts (≈) assume the structure as drawn. “Also recorded” adds a separate entry of the source. Like-named read-outs stand apart in the source and are kept apart here.

Columns and labels:
B. subtilis ATCC6633 = assay: Antibacterial activity MIC, double-microdilution; type: cell-based, Bacillus subtilis; conditions: Bacillus subtilis, ATCC6633; Table 1; free amine concentration, sulfate salts tested; read-out: Antibacterial activity MIC B. subtilis ATCC6633
E. coli R477/100 = assay: Antibacterial activity MIC, double-microdilution; type: cell-based, Escherichia coli; conditions: Escherichia coli, R477/100; Table 1; read-out: Antibacterial activity MIC E. coli R477/100
[1] = target: Prokaryotic system (prokaryotic ribosome); assay: Prokaryotic translation inhibition, coupled transcription/translation, luciferase detection; type: biochemical
Experimental: Prokaryotic and eukaryotic translation inhibition was quantified in coupled transcription/translation assays by using active luciferase detection, performed as described hereinabove. […] All the experiments were performed in duplicates and analogous results were obtained in three different experiments. In all biological tests, all tested aminoglycosides were in their sulfate salt forms. The concentrations reported refer to that of the free amine form of each aminoglycoside.
(§1) In all biological experiments conducted, all tested aminoglycosides were in their sulfate salt forms. The concentrations reported in Table 3 refer to that of the free amine form of each aminoglycoside. Prokaryotic and eukaryotic translation inhibition was quantified in coupled transcription/translation assays as previously described. The half-maximal concentration (IC50) values were obtained from fitting concentration response curves to the data of at least three independent experiments, using GraFit 5 software. All the experiments were performed in duplicates and analogous results were obtained in three different experiments.

[2] = test system: Eukaryotic system (eukaryotic cytoplasmic ribosome); assay: Eukaryotic translation inhibition, coupled transcription/translation, luciferase detection; type: biochemical; conditions: for Prokaryotic versus Eukaryotic selectivity IC50^Euk/IC50^Pro: ratio of eukaryotic to prokaryotic translation inhibition IC50; for more specific to the eukaryotic ribosome than parent (NB30 or NB54): comparison of eukaryotic IC50 values with parent structure
Excerpt: Prokaryotic and eukaryotic translation inhibition was quantified in coupled transcription/translation assays by using active luciferase detection, performed as described hereinabove. […] In all biological tests, all tested aminoglycosides were in their sulfate salt forms. The concentrations reported refer to that of the free amine form of each aminoglycoside.
as §1, with “software.” for “software. All the experiments were performed in duplicates and analogous results were obtained in three different experiments.”

[3] = Cell toxicity LC50 in HFF cells; type: cell-based; conditions: human
Experimental: (§2) In order to ensure suitable cell viability for each of the tested compounds at the concentrations tested, cell toxicity was evaluated for each compound by measuring the half-maximal-lethal concentration value (LC50 values) in HEK-293 and HFF (human foreskin fibroblasts) cells.
(§3) The percentages of cell viability were calculated as the ratio between the numbers of living cells in cultures grown in the presence of the tested compounds, versus cultures grown under the identical protocol but without the tested compound. The results represent averages of at least three independent experiments.
(§4) The half-maximal lethal concentration (LC50) values were obtained from fitting concentration-response curves to the data of at least three independent experiments, using GraFit 5 software.

[4] = Cell toxicity LC50 in HEK-293 cells; type: cell-based; conditions: human
Experimental: as §2, §3, §4

[5] = test system: nonsense mutation constructs R3X, R245X, G542X, W1282X, Q70X, R3381X (PCDH15, CFTR, IDUA, Dystrophin); assay: In vitro stop codon readthrough assay, p2Luc dual luciferase, TNT reticulocyte lysate; type: biochemical; conditions: cell-free, mutations tested; comparison in words from FIGS. 2, 3, 5-7
Excerpt: DNA fragments derived from PCDH15, CFTR, Dystrophin and IDUA cDNAs, including the tested nonsense mutation or the corresponding wild type (wt) codon, and four to six upstream and downstream flanking codons were created by annealing following pairs of complementary oligonucleotides:
The fragments were inserted in frame into the polylinker of the p2Luc plasmid between either BamHI and SacI (p.R3X and p.R245X), or SalI and SacI (all the rest) restriction sites.
For the in vitro readthrough assays, the obtained plasm ids, with addition of the tested aminoglycosides were transcribed and translated using the TNT Reticulocyte Lysate Quick Coupled Transcription/Translation System. Luciferase activity was determined after 90 minutes of incubation at 30° C., using the Dual Luciferase Reporter Assay System (Promega™).
Initially, the influence of the chiral C5″-methyl group on readthrough potential was evaluated on the pseudo-trisaccharides NB118 and NB119 by using a dual luciferase reporter assay system as described hereinabove. Briefly, DNA fragments were cloned between BamHI and SacI restriction sites of the p2luc vector and the obtained constructs were transcribed and translated using TNT quick coupled transcription/translation system. The amount of the translated products was evaluated using the dual luciferase reporter assay system and used to calculate the suppression level.

[6] = test system: nonsense mutation constructs R3X, R245X, Q70X, W1282X, G542X in HEK-293 cells; assay: Ex vivo stop codon readthrough assay, p2luc constructs transfected to HEK-293 cells; type: cell-based, human; conditions: ex vivo in HEK-293, all the mutations tested, FIGS. 4, 8-10
Experimental: For the ex vivo readthrough assays, the constructs harboring the R3X, R245X, Q70X and W1282X mutations were transfected to HEK-293 cells with Lipofectamine 2000 (Invitrogen) and addition of the tested compounds was performed 6 hours post transfection. The cells were harvested following 16 hours of incubation with the tested aminoglycosides. Stop codon readthrough was calculated as previously described (see, Grentzmann, G. et al., RNA, 1998, 4, p. 479).
The constructs were transfected into a human embryonic kidney cell line (HEK-293) and incubated with varying concentrations of NB122, NB123, NB54 and the control drug gentamicin, and the results are presented in FIGS. 4A-D.
As described hereinabove, the constructs of p2luc plasmid harboring the R3X, R245X, Q70X and W1282X mutations were transfected to HEK-293 cells using lipofectamine2000 and the tested compounds were added 6 hours post transfection. Cells were harvested after 16 hours incubation and luciferase activity was determined using the dual luciferase reporter assay system (Promega™). Stop codon readthrough was calculated as described previously, and the results are averages of at least three independent experiments.

[7] = Table 1, read-out: Translation inhibition Prokaryotic system IC50
[8] = Table 3, read-out: Translation Inhibition IC50^Pro
[9] = Table 1, read-out: Translation inhibition Eukaryotic System IC50
[10] = Table 3, read-out: Translation Inhibition IC50^Euk
[11] = HFF (human foreskin fibroblast) cells, Table 1, read-out: Cell toxicity LC50 HFF
[12] = HEK-293 cells, Table 1, read-out: Cell toxicity LC50 HEK-293

Row | Structure (SMILES) | MIC (B. subtilis ATCC6633) | MIC (E. coli R477/100) | IC50 [1, 7] | IC50 [1, 8] | more selective to prokaryotic versus eukaryotic ribosome [2] | IC50 [2, 9] | IC50 [2, 10] | Prokaryotic versus Eukaryotic selectivity IC50^Euk/IC50^Pro [2] | CC50 [3] | CC50 [4] | in vitro readthrough activity (stop codon suppression level) [5] | more specific to the eukaryotic ribosome than parent (NB30 or NB54) [2] | CC50 [3, 11] | CC50 [4, 12] | observed efficacy of aminoglycoside-induced readthrough, order [6]
1 | NC[C@@H]1O[C@H](O[C@H]2[C@@H](O)[C@H](O[C@@H]3[C@@H](O)[C@H](N)C[C@H](N)[C@H]3O[C@H]3O[C@H](CO)[C@@H](O)[C@H](O)[C@H]3N)O[C@@H]2CO)[C@H](N)[C@@H](O)[C@@H]1O [Paromomycin, reference compound] | 1.2 µM | 22 µM (≈ 13.5 µg/mL) | 0.051 ± 0.005 µM | 0.051 ± 0.005 µM | 1,118 fold | 57 ± 4 µM | 57 ± 4 µM | 1,118 | 3100 ± 400 µM | 4100 ± 500 µM |  |  |  |  | 
2 | NC1C(OCOC2C(N)[C@H](O[C@H]3C(N)C[C@H](N)C(O)C3O)OC(CO)[C@@H]2O)[C@H](O)C(CO)O[C@@H]1O[C@@H]1C(N)C[C@@H](N)C(O)C1O (stereo partly shown) [NB33, reference compound] |  |  |  |  |  |  |  | about 2 |  |  | essentially no readthrough activity; also recorded: almost no readthrough activity |  |  |  | 
3 | C[C@H](N)[C@H]1O[C@@H](OC2C(O)[C@H](NC(=O)[C@@H](O)CCN)CC(N)[C@H]2O[C@H]2OC(CO)[C@@H](O)C(O)C2N)C(O)C1O (stereo partly drawn) [NB122, 5-O-(5-Amino-5,6-dideoxy-α-L-talofuranosyl)-1-N—[(S)-4-amino-2-hydroxy-butanoyl]paromamine] | 33 µM | 1070 µM (≈ 608 µg/mL) | 2.27 ± 0.196 µM | 2.27 ± 0.196 µM |  | 5.2 µM | 5.2 ± 0.7 µM | 2.3 |  |  | induced the highest level of readthrough | 4.6 fold | 8100 ± 1400 µM | 10100 µM | NB122≥NB123>NB54>gentamicin
4 | C[C@H](N)[C@H]1O[C@@H](OC2C(O)[C@H](N)CC(N)[C@H]2O[C@H]2OC(CO)[C@@H](O)C(O)C2N)C(O)C1O (stereo partly drawn) [NB118, 5-O-(5-Amino-5,6-dideoxy-α-L-talofuranosyl)-paromamine] | 83 µM | 2660 µM (≈ 1250 µg/mL) | 1.96 ± 0.206 µM | 1.96 ± 0.206 µM |  | 16 µM | 15.5 ± 1.3 µM | 7.9 |  |  | significantly better than that of the clinical drug gentamicin | 1.9 fold | 21800 ± 500 µM | 23500 µM | 
5 | C[C@@H](N)[C@H]1O[C@@H](OC2C(O)[C@H](NC(=O)[C@@H](O)CCN)CC(N)[C@H]2O[C@H]2OC(CO)[C@@H](O)C(O)C2N)C(O)C1O (stereo partly drawn) [NB123, 5-O-(5-Amino-5,6-dideoxy-β-D-allofuranosyl)-1-N—[(S)-4-amino-2-hydroxy-butanoyl] paromamine] | 33 µM | 1060 µM (≈ 602 µg/mL) | 0.811 ± 0.059 µM | 0.811 ± 0.059 µM |  | 4.6 ± 0.6 µM | 4.6 ± 0.6 µM | 5.7 |  |  |  |  | 19300 ± 1500 µM | 13900 ± 1300 µM | NB122≥NB123>NB54>gentamicin
6 | C[C@@H](N)[C@H]1O[C@@H](OC2C(O)[C@H](N)CC(N)[C@H]2O[C@H]2OC(CO)[C@@H](O)C(O)C2N)C(O)C1O (stereo partly drawn) [NB119, 5-O-(5-Amino-5,6-dideoxy-β-D-allofuranosyl)-paromamine] | 78 µM | 4990 µM (≈ 2340 µg/mL) | 2.13 ± 0.478 µM | 2.13 ± 0.478 µM |  | 28 ± 1.1 µM | 28 ± 1.1 µM | 13 |  |  | comparatively small |  | 20100 ± 600 µM | 19800 ± 400 µM | 
